# Data taken from patent publication US10758569B2, “Heteroaryl disulfide compounds as allosteric effectors for increasing the oxygen-binding affinity of hemoglobin” (The General Hospital Corporation, priority 2014, dated 2020).
# Experiments:
# [1] = test system: red blood cells from sickle cell disease patients (SRBCs); conditions: reported value; cited from earlier work
# whole blood = test: ODC (P50) of whole blood; conditions: 6:1 molar ratio of compound to hemoglobin (120 μM)
# Description: The ODC of hemoglobin was measured with a HEMOX analyzer (TCS Scientific Corporation) at 37° C. For experiments with purified hemoglobin, hemoglobin (20 μM as tetramer) was dissolved in DPBS and antifoam (0.2 vol %, Catalog No. AFA-25, TCS Scientific Corporation) was added to prevent foaming of the sample. Compounds were prepared in DMSO stock solutions then added to hemoglobin. […] For experiments with RBCs, blood was drawn from volunteers into EDTA tubes. The blood was centrifuged for 15 min at 3,000 rpm at 4° C. The supernatant was discarded, and RBCs were washed three times with DPBS, pH 7.4 by dilution to 50% hematocrit.
# red blood cells = test: ODC of washed red blood cells in Hemox solution; assay type: cell-based, human; conditions: for P50 of red blood cells: mixed 1 h at 37° C.
# Source text: For the reduction of P50, less amount of 1 was needed, and the reaction time of 1 with hemoglobin was faster than NEM and 5HMF.
# hemoglobin = target: T1, hemoglobin (Homo sapiens, UniProt P68871+P69905); test: Hemoglobin oxygen-binding assay (oxyHb %, plate format); assay type: biochemical; conditions: effector to hemoglobin tetramer 6 to 1 (mol/mol)
# T1 construct: from tissue; host or cells: outdated donated human red blood cells (hemolysate supernatant, dialysed against DPBS)
# T1 sequence (P68871 2-147 limits assumed): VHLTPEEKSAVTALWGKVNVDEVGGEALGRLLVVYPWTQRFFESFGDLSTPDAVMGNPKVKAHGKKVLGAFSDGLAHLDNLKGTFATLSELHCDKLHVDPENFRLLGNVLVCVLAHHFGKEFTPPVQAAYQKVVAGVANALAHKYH
# T1 sequence (P69905 2-142 limits assumed): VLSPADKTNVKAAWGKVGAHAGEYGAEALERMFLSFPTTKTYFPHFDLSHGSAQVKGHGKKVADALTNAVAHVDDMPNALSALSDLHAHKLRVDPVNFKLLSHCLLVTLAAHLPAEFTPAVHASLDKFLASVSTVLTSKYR
# Description: Test compounds (0.75 μL, 10 mM in DMSO) were added to the central area of two 384 deep well plates forming compound plates. DPBS was used as the solvent for myo-inositol hexaphosphate (IHP) and N-ethylmaleimide (NEM) (10 mM). To prevent oxidation of hemoglobin during the experiment, glucose-6-phosphate (0.4 mg/mL), glucose-6-phosphate dehydrogenase (1.0 U/mL), nicotinamide adenine dinucleotide phosphate (NADP, 0.05 mg/mL), ferredoxin (0.01 mg/mL), ferredoxin-NADP reductase (0.01 U/mL) and catalase (2×10^3 U/mL) were added to hemoglobin to produce the Hayashi reducing system, which is described in detail in Hayashi et al., Biochemica et Biophysica Acta, 1973, 310, 309-316. […]
# The alteration of hemoglobin's oxygen-binding affinity by the test compounds binding to hemoglobin was evaluated in an environment where the fractional oxygen pressure (FO2) could be precisely measured and controlled. […] To confirm the allosteric effect of the test compounds, ODC of hemoglobin was measured in the presence and absence of each compound. […]
# The ability of small molecules to alter the oxygen affinity of hemoglobin was determined by measuring the fraction of oxygenated hemoglobin (oxyHb %) and oxidized hemoglobin (metHb %) using spectrophotometry under three (high, medium, and low oxyHb saturation) conditions. […]
smiles,measurement,setting,value
"O=Cc1ccc(CO)o1 [Compound 5-HMF, 5-(Hydroxymethyl)furfural]",concentration required to reduce sickling of hypoxic SS RBCs by nearly 90%,[1],5 mM
same,P50 of whole blood,whole blood,26±0.5 Torr
same,P50 of red blood cells,red blood cells; 2 mM,9 Torr
same,P50 of RBCs,"red blood cells; Compound 1 at 120 μM (6:1 to Hb tetramer), HEMOX solution, 5 vol % DMSO, 10 min at 37° C.",27±0.5 Torr
"CCN1C(=O)C=CC1=O [NEM, N-ethylmaleimide]",P50 of whole blood,whole blood,20±1.1 Torr
same,change of oxyHb %,hemoglobin,increase
same,P50 of red blood cells,red blood cells; 400 μM,8 Torr
"O=P(O)(O)O[C@H]1[C@H](OP(=O)(O)O)[C@@H](OP(=O)(O)O)[C@H](OP(=O)(O)O)[C@@H](OP(=O)(O)O)[C@H]1OP(=O)(O)O [IHP, myo-inositol hexaphosphate]",change of oxyHb %,hemoglobin,decrease
